Assay results taken from the NIST ThermoML archive (doi:10.1021/acs.jced.9b00536).

Assay: refractive index (Na D-line) (dimensionless); wn = mass fraction of the nth substance listed
Conditions: 100 kPa, Liquid, Standard Abbe refractometry

[Na+].[OH-] [sodium hydroxide] + O
refractive index
Conditions | 308.15 K | 313.15 K | 318.15 K | 323.15 K | 328.15 K | 333.15 K
w1 = 0.2 | – | 1.3801 | 1.3795 | 1.3788 | 1.3788 | 1.3794
w1 = 0.21 | – | 1.3825 | 1.3819 | 1.3815 | 1.381 | 1.3812
w1 = 0.22 | – | 1.3851 | 1.3847 | 1.3844 | 1.3836 | 1.3835
w1 = 0.23 | – | 1.3866 | 1.3858 | 1.3853 | 1.3852 | 1.3857
w1 = 0.24 | – | 1.3886 | 1.3877 | 1.3869 | 1.3862 | 1.3847
w1 = 0.25 | – | 1.3917 | 1.391 | 1.3904 | 1.39 | 1.3894
w1 = 0.26 | – | 1.3938 | 1.3931 | 1.3926 | 1.3922 | 1.3915
w1 = 0.27 | – | 1.3955 | 1.3946 | 1.3937 | 1.3929 | 1.3923
w1 = 0.28 | – | 1.3975 | 1.3968 | 1.3961 | 1.3953 | 1.3941
w1 = 0.29 | – | 1.3999 | 1.3989 | 1.3981 | 1.397 | 1.3964
w1 = 0.3 | – | 1.4011 | 1.4002 | 1.3994 | 1.3986 | 1.3977
w1 = 0.31 | – | 1.4033 | 1.4024 | 1.4016 | 1.4008 | 1.3998
w1 = 0.32 | – | 1.4044 | 1.4036 | 1.4025 | 1.4018 | 1.4008
w1 = 0.33 | – | 1.4061 | 1.4051 | 1.4042 | 1.4033 | 1.4024
w1 = 0.34 | – | 1.4086 | 1.4077 | 1.4068 | 1.4058 | 1.4048
w1 = 0.35 | 1.4114 | 1.4105 | 1.4095 | 1.4085 | 1.4076 | 1.4066
w1 = 0.36 | 1.413 | 1.4121 | 1.4111 | 1.4102 | 1.4093 | 1.4083
w1 = 0.37 | 1.4145 | 1.4136 | 1.4126 | 1.4117 | 1.4107 | 1.4098
w1 = 0.38 | 1.4163 | 1.4154 | 1.4145 | 1.4135 | 1.4126 | 1.4116
w1 = 0.39 | 1.418 | 1.417 | 1.416 | 1.4151 | 1.4142 | 1.4133
w1 = 0.4 | 1.4196 | 1.4186 | 1.4177 | 1.4167 | 1.4159 | 1.415
w1 = 0.41 | 1.4206 | 1.4196 | 1.4186 | 1.4177 | 1.4167 | 1.4159
w1 = 0.42 | 1.4221 | 1.4212 | 1.4202 | 1.4192 | 1.4183 | 1.4174
w1 = 0.43 | 1.4236 | 1.4226 | 1.4217 | 1.4207 | 1.4198 | 1.4189
w1 = 0.44 | 1.4245 | 1.4235 | 1.4226 | 1.4217 | 1.4208 | 1.4198
w1 = 0.45 | 1.4258 | 1.425 | 1.4239 | 1.423 | 1.4221 | 1.4212
w1 = 0.46 | 1.4275 | 1.4266 | 1.4256 | 1.4247 | 1.4238 | 1.4229
w1 = 0.47 | 1.4285 | 1.4275 | 1.4266 | 1.4257 | 1.4248 | 1.4239
w1 = 0.48 | 1.4301 | 1.4292 | 1.4282 | 1.4273 | 1.4264 | 1.4255
w1 = 0.49 | 1.4309 | 1.43 | 1.4289 | 1.428 | 1.4271 | 1.4263
w1 = 0.5 | 1.4319 | 1.4311 | 1.4302 | 1.4293 | 1.4284 | 1.4276
